Experiment: Water solubility by quantitative analysis (HPLC)
Type: physicochemical
Settings: for Water solubility (μg/mL, HPLC) 24 hr: comparison of salt forms of Compound 1; for water solubility: quantitative analysis by HPLC, crystalline form of the salt
Method: (4) Quantitative Analysis (HPLC)
Approximately 26.7 mg of the sample was precisely weighed and placed in a 500 mL volumetric flask. 450 mL of a diluted solution (methanol:purified water=1:1) was added thereto, completely dissolved, and then filled with the diluted solution up to the marked line. HPLC equipment and analysis methods are represented in Table 1 below.
Quantitative analysis was carried out in the same manner as in Example 2.
Various types of salts were prepared. After analyzing characteristics in the same manner as above, the comparisons with potassium salt and methanesulfonic acid salt (mesylate) are represented in Table 4 below.

Row | Compound | Water solubility (μg/mL, HPLC) 24 hr (HPLC quantitation, 24 hr) [µg/mL] | water solubility [µg/mL] | solubility at 24 h (thermodynamic from solid, HPLC quantitation, 24 hr, comparison of salt forms of Compound 1, read-out: Water solubility (μg/mL, HPLC) 24 hr) [µg/mL]
1 | CC(C)n1nc(Cl)c2cc(COc3ccc4c(c3)CCC(CN3CCC(C(=O)O)CC3)=C4Cl)ccc21.CS(=O)(=O)O [Mesylate (1 eq.), methanesulfonic acid salt (mesylate) of 1-[1-chloro-6-(3-chloro-1-isopropyl-1H-indazol-5-ylmethoxy)-3,4-dihydro-naphthalen-2-ylmethyl]-piperidine-4-carboxylic acid] | 536.8 | 536.8 | 
2 | CC(C)n1nc(Cl)c2cc(COc3ccc4c(c3)CCC(CN3CCC(C(=O)[O-])CC3)=C4Cl)ccc21.[K+] [K salt (1 eq.), potassium salt of 1-[1-chloro-6-(3-chloro-1-isopropyl-1H-indazol-5-ylmethoxy)-3,4-dihydro-naphthalen-2-ylmethyl]-piperidine-4-carboxylic acid] | 33238.5 | 33238.5 | 
3 | CC(C)n1nc(Cl)c2cc(COc3ccc4c(c3)CCC(CN3CCC(C(=O)O)CC3)=C4Cl)ccc21 [Free form, 1-[1-Chloro-6-(3-chloro-1-isopropyl-1H-indazol-5-ylmethoxy)-3,4-dihydro-naphthalen-2-ylmethyl]-piperidine-4-carboxylic acid] |  |  | 3.7

Source: patent US12661349B1, “Pharmaceutically acceptable salt of sphingosine-1-phosphate receptor agonist, and crystalline form thereof” (LG CHEM, LTD., priority 2021, dated 2026)
